What was measured:
[1] = biological target: GPR84-WT (GPR84-Gi2α fusion protein) (Homo sapiens, UniProt Q9NQS5); assay: [35S]GTPγS binding assay; format: biochemical; conditions: [35S]GTPγS, GPR84-WT; for EC50: Extended Data Table 3, read-out: pEC50 ± SEM (converted)
Procedure: (§1) Membranes were generated from Flp-In™ T-REx™ 293 cells following 100 ng/ml doxycycline treatment to induce receptor expression. Cells were washed with ice-cold phosphate-buffered saline (PBS), removed from dishes by scraping and centrifuged at 1,800 x g for 5 min at 4 °C. Pellets were resuspended in TE buffer (10mM Tris-HCl, 0.1 mM EDTA; pH 7.4) containing a protease inhibitor mixture and homogenized with a 5 ml hand-held homogenizer. Samples were centrifuged at 450 x g for 5 min at 4 °C and the supernatant was further centrifuged at 90,000 x g for 45 min at 4 °C. The resulting pellet was resuspended in TE buffer and protein content was assessed using a BCA protein assay kit.
(§2) Prepared membrane protein (3 μg per well) was incubated in assay buffer (20 mM HEPES, 5 mM MgCl2, 160 mM NaCl, 0.05 % fatty-acid-free bovine serum albumin; pH 7.4) containing the indicated ligand concentrations. The reaction was initiated by addition of [^35S]GTPγS (100 nCi per reaction) with 1 μM GDP, and incubated at 30 °C for 60 min. The reaction was terminated by rapid vacuum filtration through GF/C glassfibre filter-bottom 96-well microplates using a UniFilter FilterMate Harvester (PerkinElmer). Unbound radioligand was removed from filters by three washes with ice-cold PBS. Ultima Gold™ XR was added to dried filters, and [^35S]GTPγS binding quantified by liquid scintillation spectroscopy.

GPR84 [2] = biological target: T1, GPR84 (Homo sapiens, UniProt Q9NQS5); assay: CHO-K1-based HitHunter cAMP inhibition assay; format: cell-based; conditions: wild type GPR84; for EC50: CHO-K1 cells, forskolin 25 μM, read-out: cAMP pEC50 ± SEM (converted); for Emax: normalised to capric acid (100 μM), read-out: cAMP %Emax ± SEM
Procedure: CHO-K1 cells stably expressing human GPR84 (DiscoverX 95-0158C2) were seeded in 384-well plates at 15,000 cells per well in 20 μL of F12 medium supplemented with 10% fetal bovine serum (FBS), 19 mM HEPES, and 1% penicillin-streptomycin. After overnight incubation at 37 °C and 5% CO2, the medium was removed and replaced with PBS containing 0.1% BSA. Cells were stimulated for 30 min with forskolin (25 μM) and test compounds prepared in Dulbecco’s PBS (DPBS) with 0.1% BSA. Compounds were dissolved in DMSO and diluted appropriately. cAMP levels were quantified using the HitHunter® cAMP Assay for Small Molecules (DiscoverX 90-0075SM2) according to the manufacturer’s protocol. Luminescence was measured 18 h post-assay using a PHERAstar® FS plate reader (BMG Labtech).

GPR84 [3] = biological target: T1, GPR84; assay: CHO-K1-based PathHunter β-arrestin-2 recruitment assay; format: cell-based; set-up: host or cells: CHO-K1; conditions: for Emax: read-out: β-arrestin-2 %Emax ± SEM; for EC50: wild type GPR84, CHO-K1 PathHunter, read-out: β-arrestin-2 pEC50 ± SEM (converted); for change in efficacy in β-arrestin-2 recruitment: compared to OX04929 (so in the source)
Procedure: Cells were stimulated with test ligands for 90 min. Compounds were prepared at 5× concentration in DPBS containing 0.1% BSA and 0.125% Tween-80 to minimise aggregation. β-arrestin recruitment was quantified using the PathHunter® β-Arrestin Assay (DiscoverX 93-0001) following the manufacturer’s instructions. Luminescence was recorded after 18 h using a PHERAstar® FS plate reader.

[4] = biological target: T2, GPR84 N104A (GPR84-Gi2α fusion protein) (Homo sapiens, UniProt Q9NQS5, N104A); assay: [35S]GTPγS binding assay; format: biochemical; conditions: [35S]GTPγS; N104A; read-out: Emax ± SEM
T2 construct: FLAG (N); Gαi2-Cys352Ile (fusion partner) (C); expressed in transfected cells
Procedure: as §1, §2

GPR84 N362S = biological target: T3, GPR84 N362S (Homo sapiens, UniProt Q9NQS5, N362S); assay: [35S]GTPγS binding assay; format: biochemical; conditions: [35S]GTPγS; N362S; read-out: Emax ± SEM
T3 construct: FLAG (N); Gαi2-Cys352Ile (fusion partner) (C); expressed in transfected cells
Procedure: as §1, §2

[5] = biological target: T4, GPR84 R172A (GPR84-Gi2α fusion protein) (Homo sapiens, UniProt Q9NQS5, R172A); assay: [35S]GTPγS binding assay; format: biochemical
T4 construct: FLAG (N); Gαi2-Cys352Ile (fusion partner) (C); expressed in transfected cells
Procedure: as §1, §2

[6] = biological target: T5, GPR84 S169A (GPR84-Gi2α fusion protein) (Homo sapiens, UniProt Q9NQS5, S169A); assay: [35S]GTPγS binding assay; format: biochemical; conditions: [35S]GTPγS; S169A; read-out: Emax ± SEM
T5 construct: FLAG (N); Gαi2-Cys352Ile (fusion partner) (C); expressed in transfected cells
Procedure: as §1, §2

[7] = biological target: T6, GPR84 T167A (GPR84-Gi2α fusion protein) (Homo sapiens, UniProt Q9NQS5, T167A); assay: [35S]GTPγS binding assay; format: biochemical; conditions: [35S]GTPγS; T167A; read-out: Emax ± SEM
T6 construct: FLAG (N); Gαi2-Cys352Ile (fusion partner) (C); expressed in transfected cells
Procedure: as §1, §2

[8] = biological target: T7, GPR84 W360A (GPR84-Gi2α fusion protein) (Homo sapiens, UniProt Q9NQS5, W360A); assay: [35S]GTPγS binding assay; format: biochemical; conditions: [35S]GTPγS; W360A; read-out: Emax ± SEM
T7 construct: FLAG (N); Gαi2-Cys352Ile (fusion partner) (C); expressed in transfected cells
Procedure: as §1, §2

GPR84 Y332A = biological target: T8, GPR84 Y332A (Homo sapiens, UniProt Q9NQS5, Y332A); assay: [35S]GTPγS binding assay; format: biochemical; conditions: [35S]GTPγS; Y332A; read-out: Emax ± SEM
T8 construct: FLAG (N); Gαi2-Cys352Ile (fusion partner) (C); expressed in transfected cells
Procedure: as §1, §2

GPR84 Y332F = biological target: T9, GPR84 Y332F (Homo sapiens, UniProt Q9NQS5, Y332F); assay: [35S]GTPγS binding assay; format: biochemical; conditions: [35S]GTPγS; Y332F; read-out: Emax ± SEM
T9 construct: FLAG (N); Gαi2-Cys352Ile (fusion partner) (C); expressed in transfected cells
Procedure: as §1, §2

[9] = biological target: T10, GPR84 Y69A (GPR84-Gi2α fusion protein) (Homo sapiens, UniProt Q9NQS5, Y69A); assay: [35S]GTPγS binding assay; format: biochemical; conditions: [35S]GTPγS; Y69A; read-out: Emax ± SEM
T10 construct: FLAG (N); Gαi2-Cys352Ile (fusion partner) (C); expressed in transfected cells
Procedure: as §1, §2

[10] = biological target: T11, GPR84 Y81A (GPR84-Gi2α fusion protein) (Homo sapiens, UniProt Q9NQS5, Y81A); assay: [35S]GTPγS binding assay; format: biochemical; conditions: [35S]GTPγS; Y81A; read-out: Emax ± SEM
T11 construct: FLAG (N); Gαi2-Cys352Ile (fusion partner) (C); expressed in transfected cells
Procedure: as §1, §2

wild type GPR84 = biological target: T12, wild type GPR84 (Homo sapiens, UniProt Q9NQS5); assay: pThr263/pThr264 immunoblot of immunoprecipitated GPR84-eYFP; format: cell-based; conditions: 1 μM
T12 construct: expressed in transfected cells
Procedure: eYFP-linked receptor constructs were immunoprecipitated from 200 μl cell lysates using GFP-Trap® agarose beads (Proteintech) according to manufacturer’s instructions. Immunocomplexes were washed three times in washing buffer, resuspended in 100 μl 2 × SDS-PAGE sample buffer and incubated at 60 °C for 10 min. Following centrifugation at 2500g for 5 min, 20 μl of immunoprecipitated proteins was resolved by SDS-PAGE on 4% to 12% BisTris gels. After separation, the proteins were transferred electrophoretically onto nitrocellulose membrane, which was then blocked using 5% bovine serum albumin (BSA) in Tris-buffered saline (TBS, 50 mM Tris-Cl, 150 mM NaCl, pH 7.6) for 1 h at room temperature on an orbital shaker. The membrane was then incubated with appropriate primary antibody in 5% BSA in TBS supplemented with 0.1% Tween (TBS-T) overnight at 4 °C. Anti-pThr^263/pThr^264 antiserum was diluted 1:2000 and anti-GFP was diluted 1:10,000. Subsequently, the membrane was washed (3 × 10 min with TBS-T) and incubated for 2 h with anti-rabbit secondary antibody diluted 1:10,000 in 5% BSA in TBS-T. After washing (3 × 10 min with TBS-T), proteins were detected using an Odyssey imaging system (Licor) according to the manufacturer’s instructions.

T1 sequence (Q9NQS5 whole entry): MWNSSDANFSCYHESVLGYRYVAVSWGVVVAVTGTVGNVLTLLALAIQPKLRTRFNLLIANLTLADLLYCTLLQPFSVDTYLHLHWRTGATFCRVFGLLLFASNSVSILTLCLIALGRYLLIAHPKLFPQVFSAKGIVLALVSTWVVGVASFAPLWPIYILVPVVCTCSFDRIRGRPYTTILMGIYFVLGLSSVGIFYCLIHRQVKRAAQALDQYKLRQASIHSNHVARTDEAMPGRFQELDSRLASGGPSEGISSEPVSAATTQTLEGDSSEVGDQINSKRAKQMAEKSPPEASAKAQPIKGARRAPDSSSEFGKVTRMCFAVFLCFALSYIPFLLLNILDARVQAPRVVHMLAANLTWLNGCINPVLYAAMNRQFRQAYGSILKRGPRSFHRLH
Sequence of GPR84-WT (GPR84-Gi2α fusion protein) (Q9NQS5 whole entry, the tested form may be a part): as the sequence (Q9NQS5 whole entry) above
Sequence of GPR84-WT (GPR84-Gi2α fusion protein) (P04899 with tags, fused parts or gaps C352I partner): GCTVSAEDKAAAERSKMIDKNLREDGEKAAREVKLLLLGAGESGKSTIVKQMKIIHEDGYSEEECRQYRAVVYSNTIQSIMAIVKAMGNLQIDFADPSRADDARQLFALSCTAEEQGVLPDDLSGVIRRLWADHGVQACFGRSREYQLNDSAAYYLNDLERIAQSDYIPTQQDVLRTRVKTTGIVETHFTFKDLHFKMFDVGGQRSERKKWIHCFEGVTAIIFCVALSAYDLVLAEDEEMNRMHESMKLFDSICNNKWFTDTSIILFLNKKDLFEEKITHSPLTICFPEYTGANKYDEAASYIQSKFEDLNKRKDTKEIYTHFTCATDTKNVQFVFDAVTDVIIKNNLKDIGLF
T9 sequence (Q9NQS5 whole entry Y332F, the tested form may be a part): as the sequence (Q9NQS5 whole entry) above, with Y332F counted along it
T3 sequence (Q9NQS5 whole entry N362S, the tested form may be a part): as the sequence (Q9NQS5 whole entry) above, with N362S counted along it
T8 sequence (Q9NQS5 whole entry Y332A, the tested form may be a part): as the sequence (Q9NQS5 whole entry) above, with Y332A counted along it
T11 sequence (Q9NQS5 whole entry Y81A, the tested form may be a part): as the sequence (Q9NQS5 whole entry) above, with Y81A counted along it
T10 sequence (Q9NQS5 whole entry Y69A, the tested form may be a part): as the sequence (Q9NQS5 whole entry) above, with Y69A counted along it
T6 sequence (Q9NQS5 whole entry T167A, the tested form may be a part): as the sequence (Q9NQS5 whole entry) above, with T167A counted along it
T2 sequence (Q9NQS5 whole entry N104A, the tested form may be a part): as the sequence (Q9NQS5 whole entry) above, with N104A counted along it
T4 sequence (Q9NQS5 whole entry R172A, the tested form may be a part): as the sequence (Q9NQS5 whole entry) above, with R172A counted along it
T5 sequence (Q9NQS5 whole entry S169A, the tested form may be a part): as the sequence (Q9NQS5 whole entry) above, with S169A counted along it
T7 sequence (Q9NQS5 whole entry W360A, the tested form may be a part): as the sequence (Q9NQS5 whole entry) above, with W360A counted along it
T12 sequence (Q9NQS5 whole entry): as the sequence (Q9NQS5 whole entry) above

EC50 (GPR84 [2]) [nM] | Emax (GPR84 [2]) [%] | Emax (GPR84 [3]) [%] | EC50 (GPR84 [3]) [nM] | change in efficacy in β-arrestin-2 recruitment (GPR84 [3]) | SMILES | also measured
0.00724 | 95 ± 11.5 | 24 ± 2.3 | 151 |  | [O-][n+]1cc(O)cc(CCCCc2ccc(Cl)c(C(F)F)c2)c1 [OX04959] | EC50 [1]: 3.98 nM
 | 100 ± 0.8 | 100 |  |  | CCCCCCCc1cc(O)c[n+]([O-])c1 [OX04539] | Emax [4]: 150 ± 23%; Emax (GPR84 N362S): 196 ± 32%; Emax [5]: 42 ± 4%; Emax [6]: 84 ± 4%; Emax [7]: 139 ± 7%; Emax [8]: 94 ± 13%; Emax (GPR84 Y332A): 57 ± 10%; Emax (GPR84 Y332F): 167 ± 2%; Emax [9]: 101 ± 14%; Emax [10]: 134 ± 5%; Emax ([1]; Extended Data Tables 1 and 5, read-out: Emax ± SEM): 150 ± 14%; phosphorylation of Thr263 and Thr264 (immunoblot) (wild type GPR84): promoted phosphorylation
0.0355 | 101 ± 1.5 | 21 ± 2.9 | 263 |  | [O-][n+]1cc(O)cc(CCCCc2ccc(Cl)c(CO)c2)c1 [OX04955] | 
0.0145 | 94 ± 7.4 | 9 ± 1.4 |  | no significant change | CC(C)c1cc(CCCCc2cc(O)c[n+]([O-])c2)ccc1Cl [OX04964] | 
0.0407 | 99 ± 0.1 | 72 ± 1.3 | 70.8 |  | [O-][n+]1cc(O)cc(CCCCc2ccc(Cl)c(F)c2)c1 [OX04958] | 
0.00912 | 98 ± 2.1 | 34 ± 6 | 138 |  | [O-][n+]1cc(O)cc(CCCCc2ccc(Cl)c(Br)c2)c1 [OX04956] | 
0.0389 | 102 ± 3 | 46 ± 5.8 | 209 |  | [O-][n+]1cc(O)cc(CCCCc2ccc(Cl)c(Cl)c2)c1 [OX04957] | 
0.00398 | 103 ± 3.7 | 9 ± 3 |  | no significant change | [O-][n+]1cc(O)cc(CCCCc2ccc(Cl)c(C3CC3)c2)c1 [OX04965] | 
0.0112 | 103 ± 3.6 | 21 ± 0.3 | 39.8 | no significant change | CCc1cc(CCCCc2cc(O)c[n+]([O-])c2)ccc1Cl [OX04961] | 
0.00933 | 97 ± 3.4 | 18 ± 2.2 | 178 | no significant change | C=Cc1cc(CCCCc2cc(O)c[n+]([O-])c2)ccc1Cl [OX04962] | 
0.17 | 107 ± 5.6 | 5 ± 1.5 |  | no significant change | CC1(c2cc(CCCCc3cc(O)c[n+]([O-])c3)ccc2Cl)CC1 [OX04966] | 
0.0204 | 97 ± 0.7 | 81 ± 5.3 | 110 |  | [O-][n+]1cc(O)cc(CCCCc2ccc(Cl)cc2)c1 [OX04540] | 
0.00646 | 106 ± 3.8 | 15 ± 1.1 | 37.2 |  | C#Cc1cc(CCCCc2cc(O)c[n+]([O-])c2)ccc1Cl [OX04963] | 
 |  |  |  |  | Fc1cc(F)c2[nH]cc(Cc3c[nH]c4c(F)cc(F)cc34)c2c1 [PSB-16671, di(5,7-difluoro-1H-indole-3-yl)methane, reference compound] | Emax (GPR84 N362S): 100%; Emax (GPR84 Y332A): 100%; Emax (GPR84 Y332F): 100%
0.0102 | 107 ± 2.1 | 45 ± 1.2 | 447 |  | [O-][n+]1cc(O)cc(CCCCc2ccc(Cl)c(CF)c2)c1 [OX04960] | EC50 [1]: 6.31 nM
